# Results published in ChEMBL document CHEMBL1142283, “Thiosulfinates from Allium tuberosum L. induce apoptosis via caspase-dependent and -independent pathways in PC-3 human prostate cancer cells” (Bioorg Med Chem Lett, 2008).
# Activity calls are given as the source filed them. No cut-off for these calls is given here.
# Assays:
# [1] = system: PC-3; experiment: Decrease in Bcl2 protein expression in human PC3 cells by Western blot; type: functional, cell-based
# [2] = system: PC-3; experiment: Growth inhibition of human PC3 cells by SRB assay; type: functional, cell-based; settings: TDE = time-dependent effect
# [3] = system: PC-3; experiment: Cytotoxicity against human PC3 cells after 24 hrs by SRB assay; type: functional, cell-based; settings: PC-3, 24 h
# [4] = system: PC-3; experiment: Induction of apoptosis in human PC3 cells assessed as caspase 8 activity at 10 ug/mL relative to control; type: functional
# [5] = system: PC-3; experiment: Induction of apoptosis in human PC3 cells assessed as DNA fragmentation at 20 ug/mL after 24 hrs by ELISA relative to control; type: functional
# [6] = system: PC-3; experiment: Induction of cell death in human PC3 cells by trypan blue assay; type: functional, cell-based
# [7] = system: PC-3; experiment: Induction of apoptosis in human PC3 cells assessed as DNA fragmentation at 5 ug/mL after 24 hrs by ELISA relative to control; type: functional
# [8] = system: PC-3; experiment: Induction of cell death in human PC3 cells in presence of caspase inhibitor Z-VAD-fmk; type: functional, cell-based
# [9] = system: PC-3; experiment: Induction of apoptosis in human PC3 cells after 24 hrs by Hoechst staining; type: functional, cell-based
# [10] = Cytotoxicity against human RC58T/h/SA#4 cells after 24 hrs by SRB assay; type: functional, cell-based
# [11] = system: PC-3; experiment: Increase in Bax protein expression in human PC3 cells by Western blot; type: functional, cell-based
# [12] = system: PC-3; experiment: Induction of apoptosis in human PC3 cells assessed as caspase 3 activity at 20 ug/mL; type: functional, cell-based
# [13] = system: PC-3; experiment: Induction of apoptosis in human PC3 cells assessed as caspase 3 activity at 10 ug/mL relative to control; type: functional
# [14] = system: PC-3; experiment: Induction of apoptosis in human PC3 cells assessed as caspase 3 activity at 5 ug/mL; type: functional, cell-based
# [15] = system: PC-3; experiment: Growth inhibition of human PC3 cells assessed as decrease in cell numbers by trypan blue assay; type: functional, cell-based
# [16] = system: PC-3; experiment: Induction of Bid protein cleavage in human PC3 cells by Western blot; type: functional, cell-based
# [17] = system: PC-3; experiment: Induction of apoptosis in human PC3 cells assessed as caspase 3 activity at 10 ug/mL; type: functional, cell-based
# [18] = system: PC-3; experiment: Induction of apoptosis in human PC3 cells assessed as caspase 9 activity at 10 ug/mL relative to control; type: functional
# [19] = system: PC-3; experiment: Induction of AIF protein translocation into nucleus in human PC3 cells after 24 hrs by immunostaining; type: functional, cell-based
# [20] = system: PC-3; experiment: Reversal of induction of apoptosis in human PC3 cells in presence of caspase inhibitor Z-VAD-fmk; type: functional, cell-based
# [21] = system: PC-3; experiment: Increase in AIF protein levels in human PC3 cells after 24 hrs by Western blot; type: functional, cell-based
# [22] = system: PC-3; experiment: Induction of PARP cleavage in human PC3 cells after 24 hrs by Western blot; type: functional, cell-based
# [23] = system: DU-145; experiment: Cytotoxicity against human DU145 cells after 24 hrs by SRB assay; type: functional, cell-based; settings: DU-145, 24 h
# [24] = system: LNCaP; experiment: Cytotoxicity against human LNCap cells after 24 hrs by SRB assay; type: functional, cell-based
# [25] = system: PC-3; experiment: Induction of apoptosis in human PC3 cells assessed as DNA fragmentation at 10 ug/mL after 24 hrs by ELISA relative to control; type: functional
# [26] = system: PC-3; experiment: Cell cycle arrest in human PC3 cells assessed as accumulation at subG1 phase after 24 hrs by flow cytometry; type: functional, cell-based
Structure (SMILES),Activity [1],Activity [2],IC50 [3] [µM],Fold change [4],Fold change [5],Activity [6],Fold change [7],Activity [8],Activity [9],IC50 [10] [µM],Activity [11],Activity [12],Fold change [13],Activity [14],Activity [15],Activity [16],Activity [17],Fold change [18],Activity [19],Activity [20],also measured
C=CC[S+]([O-])SC (configuration not stated),Dose-dependent effect,tde,62.9,1.9,1.8,Dose-dependent effect,1.3,Active,Active,25.3,Dose-dependent effect,Active,1.7,Active,Dose-dependent effect,Active,Active,2.1,Active,Active,Activity [21]: Active; Activity [22]: Active; IC50 [23]: 85.8 µM; IC50 [24]: 29.7 µM; Fold change [25]: 1.7; Activity [26]: Dose-dependent effect
CS[S+](C)[O-] (configuration not stated),Dose-dependent effect,tde,166,1.9,1.8,Dose-dependent effect,1.3,Active,Active,96.1,Dose-dependent effect,Active,1.7,Active,Dose-dependent effect,Active,Active,2.1,Active,Active,Activity [21]: Active; Activity [22]: Active; IC50 [23]: 184 µM; IC50 [24]: 102 µM; Fold change [25]: 1.7; Activity [26]: Dose-dependent effect
